# Patent publication US8530380B2 (priority 1997, dated 2013)
# System: Phytophthora infestans
# Format: in vivo
# Settings: single active ingredient, 3.1 ppm in the spray liquor; tomato plants infected next day, evaluated after 6 days
row,SMILES,Efficacy in % of the untreated control
1,O=C(Nc1ccccc1-c1ccc(F)cc1)c1cccnc1Cl [Compound I.1],0%
2,"COCC(=O)N(c1c(C)cccc1C)C(C)C(=O)OC (centres unmarked) [Compound IV.3, metalaxyl]",0%
